The record followed here is ChEMBL document CHEMBL3525929, “Paraoxonase 1 as a major bioactivating hydrolase for olmesartan medoxomil in human blood circulation: molecular identification and contribution to plasma metabolism” (Drug Metab Dispos, 2012).

The subject of data set [1] is CCCc1nc(C(C)(C)O)c(C(=O)OCc2oc(=O)oc2C)n1Cc1ccc(-c2ccccc2-c2nnn[nH]2)cc1. The data set is described as follows: Prodrug conversion in human serum albumin assessed as hydrolysis by single-enzyme Michaelis-Menten model. It counts as ADME.
The nature of data set [2]: Prodrug conversion in recombinant human PON1 192RR mutant expressed in FreeStyle 293-F cells assessed as hydrolysis by single-enzyme Michaelis-Menten model. The data set is classed as ADME, cell-based.
Data set [3] in a line: Prodrug conversion in recombinant human PON1 192RR mutant expressed in FreeStyle 293-F cells measured per mg of protein by single-enzyme Michaelis-Menten model. It counts as ADME, cell-based.
Data set [4] can be described thus: Ratio of Vmax to Km in recombinant human PON1 192RR mutant expressed in FreeStyle 293-F cells assessed as hydrolysis measured per mg of protein by single-enzyme Michaelis-Menten model. It counts as ADME, cell-based.
Data set [5] concerns the target T1, Albumin (Homo sapiens, UniProt P02768). As to the kind of experiment: Ratio of Vmax to Km in human serum albumin assessed as hydrolysis measured per mg of protein by single-enzyme Michaelis-Menten model. It counts as ADME.
The test system of data set [6] is Plasma. The data set is described as follows: Prodrug conversion in human plasma assessed as hydrolysis in presence of 4 fold anti-PON1 IgG/plasma ratio. The data set is classed as ADME.
The nature of data set [7]: Prodrug conversion in human serum VLDL and chylomicron assessed as conversion velocity at 10 uM measured per mg of protein in presence of Tris-HCl/Ca2+. It counts as ADME, cell-free.
The nature of data set [8]: Prodrug conversion in human serum LDL assessed as conversion velocity at 10 uM measured per mg of protein in presence of Tris-HCl/Ca2+. The data set is classed as ADME, cell-free.
A short description of data set [9]: Prodrug conversion in human serum HDL assessed as conversion velocity per mg of protein at 10 uM in presence of Tris-HCl/Ca2+. The data set is classed as ADME, cell-free.
A short description of data set [10]: Prodrug conversion in human serum LPDS assessed as conversion velocity per mg of protein at 10 uM in presence of Tris-HCl/Ca2+. It counts as ADME, cell-free.
The nature of data set [11]: Prodrug conversion in human serum LPDS assessed as conversion velocity per mg of protein at 10 uM in presence of KPB. It counts as ADME, cell-free.
The nature of data set [12]: Prodrug conversion in human serum VLDL and chylomicron assessed as distribution of hydrolyzing activity measured per ml of serum at 10 uM in presence of Tris-HCl/Ca2+. It counts as ADME, cell-free.
Data set [13] can be described thus: Prodrug conversion in human serum LDL assessed as distribution of hydrolyzing activity measured per ml of serum at 10 uM in presence of Tris-HCl/Ca2+. The data set is classed as ADME, cell-free.
Data set [14] in a line: Prodrug conversion in human serum HDL assessed as distribution of hydrolyzing activity measured per ml of serum at 10 uM in presence of Tris-HCl/Ca2+. It counts as ADME, cell-free.
Data set [15] can be described thus: Prodrug conversion in human serum LPDS assessed as distribution of hydrolyzing activity measured per ml of serum at 10 uM in presence of Tris-HCl/Ca2+. It counts as ADME, cell-free.
Data set [16] in a line: Prodrug conversion in human serum LPDS assessed as distribution of hydrolyzing activity measured per ml of serum at 10 uM in presence of KPB. The data set is classed as ADME, cell-free.
For data set [17], the system named is Plasma. The data set is described as follows: Prodrug conversion in human plasma assessed as hydrolysis measured per mg of protein at 10 uM in presence of Ca2+. It counts as ADME, cell-free.
Data set [18] relates to Plasma. As to the kind of experiment: Prodrug conversion in human plasma assessed as hydrolysis measured per mg of protein at 10 uM in presence of Mg2+. The data set is classed as ADME, cell-free.
The subject of data set [19] is Plasma. As to the kind of experiment: Prodrug conversion in human plasma assessed as hydrolysis measured per mg of protein at 10 uM in presence of Zn2+. It counts as ADME, cell-free.
The nature of data set [20]: Prodrug conversion in recombinant human PON1 192QQ mutant expressed in FreeStyle 293-F cells assessed as hydrolysis measured per mg of protein at 10 uM in presence of Ca2+. It counts as ADME, cell-based.
Data set [21] is described as follows: Prodrug conversion in recombinant human PON1 192QQ mutant expressed in FreeStyle 293-F cells assessed as hydrolysis measured per mg of protein at 10 uM in presence of Mg2+. The data set is classed as ADME, cell-based.
Data set [22] is described as follows: Prodrug conversion in recombinant human PON1 192QQ mutant expressed in FreeStyle 293-F cells assessed as hydrolysis measured per mg of protein at 10 uM in presence of Zn2+. It counts as ADME, cell-based.
Data set [23] is described as follows: Prodrug conversion in recombinant human PON1 192RR mutant expressed in FreeStyle 293-F cells assessed as hydrolysis measured per mg of protein at 10 uM in presence of Ca2+. It counts as ADME, cell-based.
The nature of data set [24]: Prodrug conversion in recombinant human PON1 192RR mutant expressed in FreeStyle 293-F cells assessed as hydrolysis measured per mg of protein at 10 uM in presence of Mg2+. It counts as ADME, cell-based.
A short description of data set [25]: Prodrug conversion in recombinant human PON1 192RR mutant expressed in FreeStyle 293-F cells assessed as hydrolysis measured per mg of protein at 10 uM in presence of Zn2+. It counts as ADME, cell-based.
The target in data set [26] is T1, Albumin. As to the kind of experiment: Prodrug conversion in human serum albumin assessed as hydrolysis measured per mg of protein at 10 uM in presence of Ca2+. It counts as ADME.
For data set [27], the target named is T1, Albumin. As to the kind of experiment: Prodrug conversion in human serum albumin assessed as hydrolysis measured per mg of protein at 10 uM in presence of Mg2+. The data set is classed as ADME.
Data set [28] concerns the target T1, Albumin. The data set is described as follows: Prodrug conversion in human serum albumin assessed as hydrolysis measured per mg of protein at 10 uM in presence of Zn2+. The data set is classed as ADME.
The subject of data set [29] is Plasma. As to the kind of experiment: Prodrug conversion in human plasma assessed as hydrolysis by single-enzyme Michaelis-Menten model. The data set is classed as ADME, cell-free.
The test system of data set [30] is Plasma. The data set is described as follows: Prodrug conversion in human plasma assessed as hydrolysis measured per mg of protein by single-enzyme Michaelis-Menten model. The data set is classed as ADME, cell-free.
Data set [31] has as its system Plasma. The data set is described as follows: Ratio of Vmax to Km in human plasma assessed as hydrolysis measured per mg of protein by single-enzyme Michaelis-Menten model. It counts as ADME.
Data set [32] is described as follows: Prodrug conversion in recombinant human PON1 192QQ mutant expressed in FreeStyle 293-F cells assessed as hydrolysis by single-enzyme Michaelis-Menten model. The data set is classed as ADME, cell-based.
Data set [33] in a line: Prodrug conversion in recombinant human PON1 192QQ mutant expressed in FreeStyle 293-F cells measured per mg of protein by single-enzyme Michaelis-Menten model. It counts as ADME, cell-based.
Data set [34] in a line: Ratio of Vmax to Km in recombinant human PON1 192QQ mutant expressed in FreeStyle 293-F cells assessed as hydrolysis measured per mg of protein by single-enzyme Michaelis-Menten model. It counts as ADME, cell-based.

T1 sequence (P02768 whole entry): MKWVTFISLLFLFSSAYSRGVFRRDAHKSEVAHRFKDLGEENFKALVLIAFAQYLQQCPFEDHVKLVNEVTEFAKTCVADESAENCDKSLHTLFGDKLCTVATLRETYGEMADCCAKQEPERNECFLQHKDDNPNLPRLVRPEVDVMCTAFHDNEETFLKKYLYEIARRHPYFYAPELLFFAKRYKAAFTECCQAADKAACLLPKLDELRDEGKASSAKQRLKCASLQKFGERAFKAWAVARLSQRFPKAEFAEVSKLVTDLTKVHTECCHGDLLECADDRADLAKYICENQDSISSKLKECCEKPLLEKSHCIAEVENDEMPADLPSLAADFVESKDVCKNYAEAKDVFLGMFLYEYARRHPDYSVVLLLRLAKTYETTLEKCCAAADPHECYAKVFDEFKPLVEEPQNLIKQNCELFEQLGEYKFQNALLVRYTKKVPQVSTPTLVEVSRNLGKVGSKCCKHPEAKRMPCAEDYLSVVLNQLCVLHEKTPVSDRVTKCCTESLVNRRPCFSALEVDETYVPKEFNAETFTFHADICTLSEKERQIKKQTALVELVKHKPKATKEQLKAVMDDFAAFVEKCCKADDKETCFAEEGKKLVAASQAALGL

Albumin (Homo sapiens): in data set [1], the Km was determined as 354 µM and the Vmax amounted to 0.00261 µmol/min.

For `CCCc1nc(C(C)(C)O)c(C(=O)OCc2oc(=O)oc2C)n1Cc1ccc(-c2ccccc2-c2nnn[nH]2)cc1` [OLMESARTAN MEDOXOMIL], the Km in [2] is 102 µM; in the data set on Plasma [29], 6.71 µM; in data set [32], 157 µM. For the same molecule, the Vmax in data set [3] is on record as 140 nmol/min; in the data set on Plasma [30], 18.6 nmol/min; in data set [33], 124 nmol/min. In addition, the Vmax/Km was 1.37 mL/min in data set [4], 0.00737 mL/min at Albumin [5], 2.77 mL/min with Plasma [31] and 0.79 mL/min in [34]. The Drug metabolism entry in the data set on Plasma [6] was “metabolite_not_detected”. Further, the Activity in data set [7] is recorded as 13.9 nmol/min; in data set [8], 12.6 nmol/min; in data set [9], 277 nmol/min; in data set [10], 0.516 nmol/min; in data set [11], 0.131 nmol/min; in data set [12], 2.42 nmol/min. Also, the Activity in data set [13] worked out at 4.07 nmol/min; in data set [14] it was 596 nmol/min; in data set [15] it was 35.6 nmol/min; in [16] it was 9.04 nmol/min; in the data set with Plasma [17], 7.91 nmol/min; in the data set on Plasma [18], 0.266 nmol/min. Also, the Activity worked out at 0.0918 nmol/min in the data set with Plasma [19]; 9.5 nmol/min in data set [20]; 0.65 nmol/min in data set [21]; 0.75 nmol/min in data set [22]; 20.6 nmol/min in data set [23]; 2.25 nmol/min in [24]. For the same molecule, the Activity in [25] was found to be 1.75 nmol/min; on Albumin [26] it was 0.0102 nmol/min; at Albumin [27] it was 0.0106 nmol/min; at Albumin [28], 0.0164 nmol/min.

The term Km denotes the concentration of substrate that gives half-maximal velocity. In general, Vmax refers to the top rate of the reaction or transport when substrate is in excess.
